Reference: patent US20250281517A1, “SENOLYSIS BY AMMONIA-LOWERING COMPONENT” (TAZ Inc., priority 2022, published 2025)

Assays:
p21 = experiment: mRNA expression level of p21, a marker of senescent cells, in tissues of aged mice (real-time RT-PCR, GAPDH as internal standard); type: in vivo; conditions: aged male C57BL/6J mice (78 weeks old), test substance in drinking water ad libitum for one month, compared to aged mice having no additional administration
Protocol: (§1) As animals, experiments was performed using 7 young mice (male C57BL/6J mice, 7 weeks old) and 28 aged mice (male C57BL/6J-Aged mice, 78 weeks old).
(§2) Group 1 was constituted of young mice, and aged mice were divided into 4 groups each consisting of 7 mice (Groups 2 to 5) and the experimental conditions of individual groups are set as shown in the Table below.
(§3) As explained below, water comprising a test substance was given to the mice of Group 3 to Group 5.
The each types of drinking water which were prepared by adding a test substance as mentioned above was given to mice of each of the groups ad libitum, and the test substance was orally administered for one month. One month after the initiation of the experiment, all mice were sacrificed and dissected. […]
(§4) The RNA was purified with 75% ethanol, evaporated to dry under reduced pressure, and dissolved in 50 micro l of RNA-free water. Using NanoDrop ND-1000 (NanoDrop Technologies), absorbance was measured at 260 nm and 280 nm to determination of an absorbance ratio (A260/280 nm), RNA purity was confirmed by checking whether or not the absorbance ratio falls within the range of 1.9 to 2.1.
Quantitative real-time PCR was performed using total RNA extracted from the tissue for analysis of mRNA expressions of senescence markers p16 and p21 commonly known in the technical field. […]

p16 = experiment: mRNA expression level of p16, a marker of senescent cells, in tissues of aged mice (real-time RT-PCR, GAPDH as internal standard); type: in vivo; conditions: aged male C57BL/6J mice (78 weeks old), test substance in drinking water ad libitum for one month, compared to aged mice having no additional administration; for mRNA expression level of marker p16 for senescent cells in the hippocampus: FIG. 3
Protocol: as §1, §2, §3
The each types of drinking water which were prepared by adding a test substance as mentioned above was given to mice of each of the groups ad libitum, and the test substance was orally administered for one month. One month after the initiation of the experiment, all mice were sacrificed and dissected. From each of the mice, the liver, kidney, hippocampus and skeletal muscle were collected for measurement markers for senescent cells.
The tissues were collected from mice at the time of dissection and soaked in RNAlater (Ambion) overnight and thereafter stored at −80° C. Total RNA was extracted from the liver tissue by the TRIzol-chroloform method.
The tissue extracted from RNAlater (50 to 100 mg) was put in 1 ml of TRIzol Reagent (Invitrogen Life Technologies), crushed. After standing still at room temperature for 5 minutes, 0.2 ml of chloroform was added and stirred. After standing still at room temperature for 2 to 3 minutes, the mixture was centrifuged at 4° C. and 12,000×g for 15 minutes. The upper layer (250 micro l) was recovered and 0.5 ml of isopropanol was added. […]
as §4
Quantitative real-time PCR was performed using total RNA extracted from the tissue for analysis of mRNA expressions of senescence markers p16 and p21 commonly known in the technical field.
From the total RNA, CDNA was synthesized using PrimeScript (Registered trademark) RT reagent Kit (Perfect Real Time) in accordance with the protocol of the manufacturer. Then, CDNA was amplified by Thermal Cycler Dice Real Time System TP800 (Takara Bio) and fluorescence was detected by SYBR (Registered trademark) Premix Ex Taq™ (Perfect Real Time) and real-time PCR detection system (Takara Bio). […]
Using the mRNA expression of glyceraldehyde-3-phosphate dehydrogenase (GAPDH) as an internal standard for correction, the relative values of mRNAs of interest were calculated. […]

Row | Compound | mRNA expression level of marker p21 for senescent cells in the kidney (p21; kidney, FIG. 1) | mRNA expression level of marker p21 for senescent cells in the liver (p21; liver, FIG. 2, upper panel) | mRNA expression level of marker p16 for senescent cells in the hippocampus (p16) | mRNA expression level of marker p16 for senescent cells in the liver (p16; liver, FIG. 2, lower panel) | mRNA expression level of marker p16 for senescent cells in the skeletal muscle (p16; skeletal muscle, FIG. 4)
1 | OC[C@H]1O[C@@H](O[C@@H]2[C@@H](CO)OC(O)(CO)[C@H]2O)[C@H](O)[C@@H](O)[C@H]1O (mixture of isomers) [lactulose] | significantly decreased | tended to decrease | decreased, although not significantly | significantly decreased | decreased, although not significantly
2 | Cl.NCCC[C@H](N)C(=O)O [ornithine, L-ornithine hydrochloride] |  |  | decreased, although not significantly |  | 
